Assay results from patent US20250179061A1 (SIRONAX LTD., priority 2022, published 2025).

Each molecule was assayed on HT-29 cells (assay: HT-29 necroptosis cell viability assay (TNF-α/SMAC mimetic/zVAD-FMK, CellTiter-Glo)). Conditions: Homo sapiens, HT-29, HT-29 necroptosis cell viability assay; class symbols for IC50; read-out: Activity.
Assay type: cell-based
Outline: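 HT-29 cells (~5,000/well, overnight) in FBS-free McCoy's 5A with TNF-α 10 ng/ml, SMAC mimetic 6 μM and zVAD-FMK 10 μM plus 10-point 1:3 compound titration, 20 h at 37°C. ATP measured by CellTiter-Glo luminescence; IC50 as geometric mean of duplicates.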

SMILES	IC50
N#Cc1ccc(=O)n(Cc2ccc(-n3ncn(Cc4c(F)cccc4F)c3=O)cc2)c1 [Example 195, 1-(4-(4-(2,6-difluorobenzyl)-5-oxo-4,5-dihydro-1H-1,2,4-triazol-1-yl)benzyl)-6-oxo-1,6-dihydropyridine-3-carbonitrile]	100 to 1000 nM
CCOC(=O)c1ncn(Cc2ccc(-n3ncn(Cc4c(F)cccc4F)c3=O)cc2F)c1C [Example 196, ethyl 1-(4-(4-(2,6-difluorobenzyl)-5-oxo-4,5-dihydro-1H-1,2,4-triazol-1-yl)-2-fluorobenzyl)-5-methyl-1H-imidazole-4-carboxylate]	< 100 nM
CCOC(=O)c1cc(C)nn1Cc1ccc(-n2ncn(Cc3c(F)cccc3F)c2=O)cc1F [Example 197, ethyl 1-(4-(4-(2,6-difluorobenzyl)-5-oxo-4,5-dihydro-1H-1,2,4-triazol-1-yl)-2-fluorobenzyl)-3-methyl-1H-pyrazole-5-carboxylate]	< 100 nM
CCOC(=O)c1cc(C)n(Cc2ccc(-n3ncn(Cc4c(F)cccc4F)c3=O)cc2F)n1 [Example 198, ethyl 1-(4-(4-(2,6-difluorobenzyl)-5-oxo-4,5-dihydro-1H-1,2,4-triazol-1-yl)-2-fluorobenzyl)-5-methyl-1H-pyrazole-3-carboxylate]	100 to 1000 nM
CCOC(=O)c1nc(C)nn1Cc1ccc(-n2ncn(Cc3c(F)cccc3F)c2=O)cc1F [Example 201]	100 to 1000 nM
CCOC(=O)c1nn(Cc2ccc(-n3ncn(Cc4c(F)cccc4F)c3=O)cc2F)c(C)c1C [Example 202, ethyl 1-(4-(4-(2,6-difluorobenzyl)-5-oxo-4,5-dihydro-1H-1,2,4-triazol-1-yl)-2-fluorobenzyl)-4,5-dimethyl-1H-pyrazole-3-carboxylate]	< 100 nM
CCOC(=O)c1c(C)c(C)nn1Cc1ccc(-n2ncn(Cc3c(F)cccc3F)c2=O)cc1F [Example 203, ethyl 1-(4-(4-(2,6-difluorobenzyl)-5-oxo-4,5-dihydro-1H-1,2,4-triazol-1-yl)-2-fluorobenzyl)-3,4-dimethyl-1H-pyrazole-5-carboxylate]	100 to 1000 nM
CCOC(=O)c1cc(C)n(Cc2ccc(-n3ncn(Cc4c(F)cccc4F)c3=O)cc2F)c1 [Example 204, ethyl 1-(4-(4-(2,6-difluorobenzyl)-5-oxo-4,5-dihydro-1H-1,2,4-triazol-1-yl)-2-fluorobenzyl)-5-methyl-1H-pyrrole-3-carboxylate]	< 100 nM
COC(=O)c1cc(C)n(Cc2ccc(-n3ncn(Cc4c(F)cccc4F)c3=O)cc2F)c1C [Example 205, methyl 1-(4-(4-(2,6-difluorobenzyl)-5-oxo-4,5-dihydro-1H-1,2,4-triazol-1-yl)-2-fluorobenzyl)-2,5-dimethyl-1H-pyrrole-3-carboxylate]	< 100 nM
Cc1ccc(C#N)n1Cc1ccc(-n2ncn(Cc3c(F)cccc3F)c2=O)cc1 [Example 206, 1-(4-(4-(2,6-difluorobenzyl)-5-oxo-4,5-dihydro-1H-1,2,4-triazol-1-yl)benzyl)-5-methyl-1H-pyrrole-2-carbonitrile]	100 to 1000 nM
Cc1ccc(C)n1Cc1ccc(-n2ncn(Cc3c(F)cccc3F)c2=O)cc1 [Example 207, 4-(2,6-difluorobenzyl)-2-(4-((2,5-dimethyl-1H-pyrrol-1-yl)methyl)phenyl)-2,4-dihydro-3H-1,2,4-triazol-3-one]	< 100 nM
CCOC(=O)c1c(C)cn(Cc2ccc(-n3ncn(Cc4c(F)cccc4F)c3=O)cc2F)c1C [Example 208, 1-(4-(4-(2,6-difluorobenzyl)-5-oxo-4,5-dihydro-1H-1,2,4-triazol-1-yl)-2-fluorobenzyl)-2,4-dimethyl-1H-pyrrole-3-carboxylate]	< 100 nM
N#Cc1ccn(Cc2ccc(-n3ncn(Cc4c(F)cccc4F)c3=O)cc2)n1 [Example 209, 1-(4-(4-(2,6-difluorobenzyl)-5-oxo-4,5-dihydro-1H-1,2,4-triazol-1-yl)benzyl)-1H-pyrazole-3-carbonitrile]	< 100 nM
COC(=O)c1cn(Cc2ccc(-n3ncn(Cc4c(F)cccc4F)c3=O)cc2F)c(C)n1 [Example 210, methyl 1-(4-(4-(2,6-difluorobenzyl)-5-oxo-4,5-dihydro-1H-1,2,4-triazol-1-yl)-2-fluorobenzyl)-2-methyl-1H-imidazole-4-carboxylate]	100 to 1000 nM
O=c1c(Br)cccn1Cc1ccc(-n2ncn(Cc3c(F)cccc3F)c2=O)cc1 [Example 211, 3-bromo-1-(4-(4-(2,6-difluorobenzyl)-5-oxo-4,5-dihydro-1H-1,2,4-triazol-1-yl)benzyl)pyridin-2(1H)-one]	100 to 1000 nM
Cc1nc(CN2CCCC2)sc1Oc1ccc(-n2ncn(Cc3c(F)cccc3F)c2=O)cc1F [Example 212, 4-(2,6-difluorobenzyl)-2-(3-fluoro-4-((4-methyl-2-(pyrrolidin-1-ylmethyl)thiazol-5-yl)oxy)phenyl)-2,4-dihydro-3H-1,2,4-triazol-3-one]	< 100 nM
Cc1cn(Cc2ccc(-n3nc4n(c3=O)C(c3ccccc3)CC4)cc2F)c(C)n1 (stereo not shown) [Example 213, 2-(4-((2,4-dimethyl-1H-imidazol-1-yl)methyl)-3-fluorophenyl)-5-phenyl-2,5,6,7-tetrahydro-3H-pyrrolo[2,1-c][1,2,4]triazol-3-one]	< 100 nM
Cc1cn(C)c(=O)n1Cc1ccc(-n2ncn(Cc3c(F)cccc3F)c2=O)cc1 [Example 214, 4-(2,6-difluorobenzyl)-2-(4-((3,5-dimethyl-2-oxo-2,3-dihydro-1H-imidazol-1-yl)methyl)phenyl)-2,4-dihydro-3H-1,2,4-triazol-3-one]	1000 to 10000 nM
CCOC(=O)c1nc(C)n(Cc2ccc(-n3ncn(Cc4c(F)cccc4F)c3=O)cc2F)c1C [Example 215, ethyl 1-(4-(4-(2,6-difluorobenzyl)-5-oxo-4,5-dihydro-1H-1,2,4-triazol-1-yl)-2-fluorobenzyl)-2,5-dimethyl-1H-imidazole-4-carboxylate]	< 100 nM
Cc1cc(C(=O)O)nn1Cc1ccc(-n2ncn(Cc3c(F)cccc3F)c2=O)cc1F [Example 216, 1-(4-(4-(2,6-difluorobenzyl)-5-oxo-4,5-dihydro-1H-1,2,4-triazol-1-yl)-2-fluorobenzyl)-5-methyl-1H-pyrazole-3-carboxylic acid]	1000 to 10000 nM
Cc1nc(C(N)=O)c(C)n1Cc1ccc(-n2ncn(Cc3c(F)cccc3F)c2=O)cc1F [Example 217, 1-(4-(4-(2,6-difluorobenzyl)-5-oxo-4,5-dihydro-1H-1,2,4-triazol-1-yl)-2-fluorobenzyl)-2,5-dimethyl-1H-imidazole-4-carboxamide]	100 to 1000 nM
Cc1nc(C)n(Cc2ccc(-n3ncn(Cc4c(F)cccc4F)c3=O)cc2F)c1C(N)=O [Example 218, 1-(4-(4-(2,6-difluorobenzyl)-5-oxo-4,5-dihydro-1H-1,2,4-triazol-1-yl)-2-fluorobenzyl)-2,4-dimethyl-1H-imidazole-5-carboxamide]	100 to 1000 nM
Cc1cc(C(N)=O)c(C)n1Cc1ccc(-n2ncn(Cc3c(F)cccc3F)c2=O)cc1F [Example 219, 1-(4-(4-(2,6-difluorobenzyl)-5-oxo-4,5-dihydro-1H-1,2,4-triazol-1-yl)-2-fluorobenzyl)-2,5-dimethyl-1H-pyrrole-3-carboxamide]	< 100 nM
Cc1nc(CO)cn1Cc1ccc(-n2nc3n(c2=O)C(c2ccccc2)CC3)cc1F (stereo not shown) [Example 220, 2-(3-fluoro-4-((4-(hydroxymethyl)-2-methyl-1H-imidazol-1-yl)methyl)phenyl)-5-phenyl-2,5,6,7-tetrahydro-3H-pyrrolo[2,1-c][1,2,4]triazol-3-one]	100 to 1000 nM
Cc1cc(CO)n(Cc2ccc(-n3nc4n(c3=O)C(c3ccccc3)CC4)cc2F)n1 (stereo not shown) [Example 221, 2-(3-fluoro-4-((5-(hydroxymethyl)-3-methyl-1H-pyrazol-1-yl)methyl)phenyl)-5-phenyl-2,5,6,7-tetrahydro-3H-pyrrolo[2,1-c][1,2,4]triazol-3-one]	1000 to 10000 nM
Cc1cn(Cc2ccc(-n3nc4n(c3=O)C(c3ccccc3)CC4)cc2F)c(C)c1C(N)=O (stereo not shown) [Example 222, 1-(2-fluoro-4-(3-oxo-5-phenyl-6,7-dihydro-3H-pyrrolo[2,1-c][1,2,4]triazol-2(5H)-yl)benzyl)-2,4-dimethyl-1H-pyrrole-3-carboxamide]	< 100 nM

Same assay, conditions: Homo sapiens, HT-29, HT-29 necroptosis cell viability, IC50 class symbols; read-out: Activity

SMILES	IC50
Nc1cc(Oc2ccc(-n3ncn(Cc4c(F)cccc4F)c3=O)cc2F)c(F)cn1 [Example 223, 2-(4-((2-amino-5-fluoropyridin-4-yl)oxy)-3-fluorophenyl)-4-(2,6-difluorobenzyl)-2,4-dihydro-3H-1,2,4-triazol-3-one]	100 to 1000 nM
CC1(C#N)CN(c2nccc(Oc3ccc(-n4ncn(Cc5c(F)cccc5F)c4=O)cc3Cl)c2F)C1 [Example 224, 1-(4-(2-chloro-4-(4-(2,6-difluorobenzyl)-5-oxo-4,5-dihydro-1H-1,2,4-triazol-1-yl)phenoxy)-3-fluoropyridin-2-yl)-3-methylazetidine-3-carbonitrile]	< 100 nM
Cc1cnc(N2CC(C)(C#N)C2)nc1Oc1ccc(-n2ncn(Cc3c(F)cccc3F)c2=O)cc1F [Example 225, 1-[4-(4-{4-[(2,6-difluorophenyl)methyl]-5-oxo-1,2,4-triazol-1-yl}-2-fluorophenoxy)-5-methylpyrimidin-2-yl]-3-methylazetidine-3-carbonitrile]	100 to 1000 nM
CC1(C#N)CN(c2nccc(Oc3ccc(-n4ncn(Cc5c(F)cccc5F)c4=O)cc3F)c2F)C1 [Example 226, 1-(4-(4-(4-(2,6-difluorobenzyl)-5-oxo-4,5-dihydro-1H-1,2,4-triazol-1-yl)-2-fluorophenoxy)-3-fluoropyridin-2-yl)-3-methylazetidine-3-carbonitrile]	< 100 nM
Cc1c(Oc2ccc(-n3ncn(Cc4c(F)cccc4F)c3=O)cc2F)ccnc1N1CC(C)(C#N)C1 [Example 227, 1-(4-(4-(4-(2,6-difluorobenzyl)-5-oxo-4,5-dihydro-1H-1,2,4-triazol-1-yl)-2-fluorophenoxy)-3-methylpyridin-2-yl)-3-methylazetidine-3-carbonitrile]	< 100 nM
